The test system of this assay is ROBO1-iCaspase9CAR-NK cells. In words: Apoptosis of ROBO1-iCaspase9 CAR-NK cells induced by medicament AP1903. It is filed as cell-based, human. As to conditions: within 24 hours. The method, then:
Different amounts of medicament AP1903 were respectively added into the ROBO1 CAR-NK cells carrying the suicide gene (ATCG427B-1F7 and 2D5) after screening in Example 6 to test the effect thereof on apoptosis of the ROBO1 CAR-NK cells carrying the suicide gene (denoted with ATCG427B). Meanwhile, the medicament AP1903 was added into the ROBO1 CAR-NK cells as control, and divided into three experimental groups, i.e., cells treated by the medicament AP1903 with different concentrations (0 nM, 10 nM and 50 nM) for 2 hours, 4 hours and 24 hours. The experimental groups respectively treated for 4 hours and 24 hours were continuously cultured with fresh medium, and the cell viability was counted three days later, and the results were shown in FIG. 12. In addition, the 0 nM and 10 nM experimental groups treated for 4 hours were cultured in fresh medium for 24 hours and then photographed, and the results were shown in FIG. 13.

On to `CC[C@H](C(=O)N1CCCC[C@H]1C(=O)O[C@H](CCc1ccc(OC)c(OC)c1)c1cccc(OCC(=O)NCCNC(=O)COc2cccc([C@@H](CCc3ccc(OC)c(OC)c3)OC(=O)[C@@H]3CCCCN3C(=O)[C@@H](CC)c3cc(OC)c(OC)c(OC)c3)c2)c1)c1cc(OC)c(OC)c(OC)c1` [AP1903], for which the “effect of AP1903 on the control cells (printed as ROBO1-iCaspase9CAR-NK cells)” value is reported as “has no effect” and the “killing of ROBO1-iCaspase9CAR-NK cells by AP1903” value is given as “can effectively kill”.

Values taken from US20210401957A1, “ROBO1 CAR-NK CELL CARRYING SUICIDE GENE, PREPARATION METHOD AND APPLICATION THEREOF” (Asclepius (Suzhou) Technology Company Group Co., Ltd., priority 2019, published 2021).
